One assay relates to Factor VII. As to conditions: LNP siRNA systems containing the lipid; hepatocytes in vivo; cited from earlier work.
Assay [1] relates to essential genes. The experiment in a line: AsCas12a tiling library pooled dropout (viability) screens. The assay is classed as cell-based, human. As to conditions: for guides targeting a TTTT site observed to be active / precision recall area under curve (AUC): A375 viability data; for guides targeting a TTTT site observed to be active: activity cutoff 5th percentile of guides targeting control genes; for precision recall area under curve (AUC): essential gene guides true positives, control gene guides false positives, TTTT PAMs excluded for AsCas12a; for AUC after selecting top half of guides by Seq-DeepCpf1 score: essential and non-essential guides of the tiling screens; for guides active, all guides / guides active, quartile with the highest Seq-DeepCpf1 prediction scores: guides targeting essential genes, cutoff 5th percentile of cell surface control guides. Also on record: AUC after selecting top half of guides by Seq-DeepCpf1 score: unit not given beside the values. An excerpt:
The AsCas12a library was cloned into a modified version of lentiGuide, pRDA_052, which expresses the guide from a U6 promoter and confers puromycin resistance.

Assay [2] deals with essential genes. The experiment in a line: Mismatched guide library off-target dropout screen in A375 cells. As to conditions: cutoff 5th percentile of controls.
Protocol: Cell lines stably expressing Cas12a were transduced with guides cloned into the pRDA_052 vector in two biological replicates at a low MOI (˜0.5). Transductions were performed with enough cells to achieve a representation of at least 500 cells per guide per replicate, taking into account a 30-50% transduction efficiency. Throughout the screen, cells were split at a density to maintain a representation of at least 500 cells per guide, and cell counts were taken at each passage to monitor growth. Puromycin selection was added 2 days post-transduction and was maintained for 5-7 days. After puromycin selection was complete, each replicate was divided into untreated (i.e. no drug/dropout arms) and small molecule treatment arms, each at a representation of at least 500 cells per guide.
In order to assess the off-target tolerance of AsCas12a, a library of guides intentionally mismatched to their target was constructed. […] Screens were performed in duplicate in A375 cells with dropout, vemurafenib, and 6-thioguanine arms in cells stably expressing 2×NLS-Cas12a and enCas12a.
The test system of assay [3] is essential genes. The experiment in a line: PAM identification by analysis of essential genes in a dropout screen. The assay is classed as cell-based. The settings on record: cell lines A375, MelJuSo, A549, OVCAR8, and 7860.
The test system of a further assay is MAPK1-MAPK3. The experiment in a line: Synthetic lethal (SynLet) multiplexed guide pair screen. The settings on record: MAPK1-MAPK3, OVCAR8 cells. The assay is classed as cell-based, human. An excerpt:
For a construct with the ordered elements guide1, DR, guide2, it can be said that the
[formula] where m and β are a fitted slope and intercept. The residual then is the difference between the observed and expected LFCs. Filtering SynLet Libraries
To assess the effectiveness of multiplexing across numerous endogenous genes, a library targeting synthetically lethal (SynLet) gene pairs was designed. […] For As Cas12a, a second guide needed only 43 additional nucleotides. […] Furthermore, the proximity of guides in the enCas12a construct made sequencing and downstream analyses easier.
For each gene in a given pair, up to 20 guides were picked at random, 15 and 5 of which targeted TTTV and TTTT PAMs respectively (FIG. 15A). Pairs were screened in both orientations and the top three direct repeats were used. Thus, each gene pair was assessed with up to 2,400 unique constructs (20 guides×20 guides×2 orientations×3 DRs). […]
To quantitate synergies between guide pairs, an expected phenotype was first calculated by determining the average LFC of each targeting guide when it was coupled with controls (FIG. 29A), and then summing the average LFC for the two guides. […] Finally, the residual from the fit line for all constructs were calculated, where a negative residual indicates a synthetic lethal pair. […]

A further assay relates to CD47, CD63, and B2M. The experiment in a line: Triple knockout with Cas12a, flow cytometry of cell surface markers in A375 cells. The assay is classed as cell-based, human. As to conditions: 6 multiplexed arrays, three timepoints, irrespective of guide position. The procedure:
A375 cells stably expressing enCas12a were transduced with 6 triple knockout arrays, 3 single knockout constructs, and one empty control vector. Two days after transduction, cells were selected with puromycin ([…]), and passaged on puromycin for 7 days. Cells were visualized by flow cytometry on the BDAccuri C6 Sampler system 9, 18, and 25 days post infection. […] Flow cytometry data were analyzed using FlowJo (v10). […] Zero, single, double, and triple knockout populations were quantified using boolean gating in FlowJo.
Using these guides, 6 multiplexed arrays with all possible guide orientations were generated (FIG. 21A-21B). Three single guide constructs, and one empty vector control, and used flow cytometry were also included (FIGS. 31A-31E) to quantify the fraction of cells that were edited or not for all three markers. […] In this internally-controlled assay, EGFP labels cells without enCas12a (and thus no dsDNA breaks) and the fraction of enCas12a-positive, EGFP-negative cells over time was measured by flow cytometry (FIG. 33A). […]
For orientation: A flow cytometer gives signals particle by particle.

Assay [4] relates to target sites preceded by a PAM. The experiment in a line: Determination of PAM (plasmid depletion in E. coli). As to conditions: N is A/C/G or T. The assay is classed as cell-based. An excerpt: Determination of PAM can be ensured as follows This experiment closely parallels similar work in E. coli for the heterologous expression of StCas9 (Sapranauskas, R. et al. Nucleic Acids Res 39, 9275-9282 (2011)). Applicants introduce a plasmid containing both a PAM and a resistance gene into the heterologous E. coli, and then plate on the corresponding antibiotic. If there is DNA cleavage of the plasmid, Applicants observe no viable colonies.
In further detail, the assay is as follows for a DNA target. Two E. coli strains are used in this assay. One carries a plasmid that encodes the endogenous effector protein locus from the bacterial strain. The other strain carries an empty plasmid (e.g. pACYC184, control strain). All possible 7 or 8 bp PAM sequences are presented on an antibiotic resistance plasmid (pUC19 with ampicillin resistance gene). The PAM is located next to the sequence of proto-spacer 1 (the DNA target to the first spacer in the endogenous effector protein locus). Two PAM libraries were cloned. One has an 8 random bp 5′ of the proto-spacer (e.g., total of 65536 different PAM sequences=complexity). The other library has 7 random bp 3′ of the proto-spacer (e.g. total complexity is 16384 different PAMs). Both libraries were cloned to have in average 500 plasmids per possible PAM. […]

The next assay deals with dystrophin. The settings on record: 48 weeks; cited from earlier work.
Assay [5] relates to genome-wide off-target sites. As to conditions: genome-wide assessment of off-target activity; cited from earlier work.
The subject of assay [6] is target sites with TYCV/CCCC and TATV PAMs. The settings on record: in vitro and in human cells; cited from earlier work.

“1,2-dilinoleyloxy-keto-N,N-dimethyl-3-aminopropane [DLinKDMA]”: the “potency order of gene silencing” value with Factor VII was “DLinKC2-DMA>DLinKDMA>DLinDMA>>DLinDAP”.
Regarding “1×NLS-Cas12a: lx-NLS-Cas12a lentiviral expression construct; Addgene 84750 [reference compound]”, in the assay on essential genes [1], the “guides targeting a TTTT site observed to be active” value came out at 7% and the “precision recall area under curve (AUC)” value amounted to 0.61.
Turning to “2×NLS-Cas12a: 2×-NLS-Cas12a lentiviral expression construct”, in the assay on essential genes [2], the “double mismatch guides active” value is reported as 9%, the “perfect match guides scoring as active” value worked out at 94% and the “single mismatch guides active” value stood at 28%. In the assay with essential genes [1], the “guides targeting a TTTT site observed to be active” value came out at 7%; the “precision recall area under curve (AUC)” value stood at 0.84; the “AUC after selecting top half of guides by Seq-DeepCpf1 score” value is listed as 0.94; the “guides active, all guides” value is 47%. Further, in the assay with essential genes [1], the “guides active, quartile with the highest Seq-DeepCpf1 prediction scores” value is 92%.
Consider `CCCCC/C=C\C/C=C\CCCCCCCC(=O)OCC(CN(C)C)OC(=O)CCCCCCC/C=C\C/C=C\CCCCC` (stereo not shown) [DLinDAP, 1,2-dilineoyl-3-dimethylammonium-propane], for which the “potency order of gene silencing” value in the assay on Factor VII is “DLinKC2-DMA>DLinKDMA>DLinDMA>>DLinDAP”.
Turning to `CCCCC/C=C\C/C=C\CCCCCCCCOCC(CN(C)C)OCCCCCCCC/C=C\C/C=C\CCCCC` (stereo not shown) [DLinDMA, 1,2-dilinoleyloxy-3-N,N-dimethylaminopropane], the “potency order of gene silencing” value in the assay on Factor VII is given as “DLinKC2-DMA>DLinKDMA>DLinDMA>>DLinDAP”.
Turning to `CCCCC/C=C\C/C=C\CCCCCCCCC1(CCCCCCCC/C=C\C/C=C\CCCCC)OCC(CCN(C)C)O1` (stereo not shown) [DLinKC2-DMA, 1,2-dilinoleyl-4-(2-dimethylaminoethyl)-[1,3]-dioxolane], the “potency order of gene silencing” value in the assay on Factor VII is recorded as “DLinKC2-DMA>DLinKDMA>DLinDMA>>DLinDAP”.
With “AsCas12a: Cas12a (Cpf1) effector used for the screens, here in multiplexed guide arrays”, the “protospacer adjacent motif (PAM)” value in the assay on essential genes [3] was “TTTV”. Also, the “guide pairs scored as synthetic lethal” value in the assay on MAPK1-MAPK3 is on record as 98%. Also, the “cells showing editing at all three loci” value in the assay with CD47, CD63, and B2M is on record as “approximately 70%”.
With AsCpf1: Acidaminococcus sp. BV3L6 Cpf1, in [4], the “PAM preceding the target sites that can be cleaved” value is listed as “TTTV”.
Regarding Eteplirsen, the “dystrophin positive fibers compared to baseline (average)” value in the assay on dystrophin is 47%.
For the compound “S542R/K548V/N552R: variant of AsCpf1 engineered with the mutations S542R/K548V/N552R”, the DNA targeting specificity entry in assay [5] is reported as “retain a high level of DNA targeting specificity”. In assay [6], the “PAMs of target sites that can be cleaved” value is listed as “TATV”.
“S542R/K607R: variant of AsCpf1 engineered with the mutations S542R/K607R”: the DNA targeting specificity result in assay [5] was “retain a high level of DNA targeting specificity”. In addition, the “PAMs of target sites that can be cleaved” value in assay [6] is on record as “TYCV/CCCC”.
For the compound “enCas12a: enCas12a lentiviral expression construct; AsCas12a comprising E174R/S542R/K548R mutations”, in the assay on essential genes [2], the “double mismatch guides active” value amounted to 16%, the “perfect match guides scoring as active” value is 91% and the “single mismatch guides active” value is recorded as 54%. Further, in the assay with essential genes [1], the “guides targeting a TTTT site observed to be active” value is recorded as 57%; the “precision recall area under curve (AUC)” value was found to be 0.96; the “AUC after selecting top half of guides by Seq-DeepCpf1 score” value stood at 0.97; the “guides active, all guides” value was 80%. Further, the “guides active, quartile with the highest Seq-DeepCpf1 prediction scores” value in the assay with essential genes [1] is on record as 94%. In the assay with essential genes [1] (EEF2 guides of the tiling library), the “EEF2 guides targeting TTTN active” value is reported as 62%. In addition, the “non-canonical tier 1 guides active, quartile with highest Seq-DeepCpf1 scores” value with essential genes [1] (TTTC substituted in silico for the actual PAM) is given as 93%. The “EEF2 guides targeting the other tier 1 PAMs active” value with essential genes [1] (non-canonical (non-TTTN) PAMs) is 68%.

Source of the values: US12264323B2, “CRISPR CPF1 direct repeat variants” (THE BROAD INSTITUTE, INC., priority 2018, dated 2025).
